These results are taken from patent US10005767B2, “Compositions and methods for inhibition of the JAK pathway” (Rigel Pharmaceuticals, Inc., priority 2009, dated 2018).

Broadly, the IC50 is the concentration needed to halve the response being measured.

SMILES strings stand for the structures. Some results are limits rather than exact numbers.

The assay relates to human primary T-cells, IL-2 stimulated proliferation (JAK-1 and JAK-3 dependent; reported as JAK3 activity). Kind of assay: Human primary T-cell proliferation stimulated by IL-2 (Example 3). Conditions: Homo sapiens, T-cell, tested under conditions described in Example 3 (IL-2 stimulated human primary T-cell proliferation); read-out: ability to inhibit JAK3 activity, IC50 range (Table V). In kind it is cell-based. Summed up: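 Peripheral-blood human T-cells pre-activated via TCR/CD28, IL-2-starved overnight, then cultured 72 h at 37 °C with compound in Yssel's medium containing IL-2 (80 U/mL in cell suspension). Proliferation read as viable-cell ATP by CellTiter-Glo luminescence; reduction versus control taken as JAK pathway inhibition.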
`COc1ccc(Nc2ncc(C)c(Nc3ccc4oc(=O)[nH]c4c3)n2)cn1` [II-123, N2-(2-methoxypyridin-5-yl)-5-methyl-N4-(2-oxo-2,3-dihydro-1,3-benzoxazol-5-yl)-2,4-pyrimidinediamine]: the IC50 was below 500 nM.

On to `COc1cc(Nc2ncc(C)c(Nc3ccc4oc(=O)[nH]c4c3)n2)ccc1C(=O)N1CCOCC1` [Compound I-269, 5-(2-(3-methoxy-4-(morpholine-4-carbonyl)phenylamino)-5-methylpyrimidin-4-ylamino)benzo[d]oxazol-2(3H)-one], for which the IC50 was below 500 nM.

In the case of `Cc1cnc(Nc2ccc3c(c2)CCC(N2CCCC2)CC3)nc1Nc1ccc2oc(=O)[nH]c2c1` (stereo not shown) [IV-1, N4-(benzo[d]oxazol-2(3H)-on-5-yl)-N2-(7-(pyrrolidin-1-yl)-6,7,8,9-tetrahydro-5H-benzo[7]annulen-2-yl)-5-methylpyrimidine-2,4-diamine], the IC50 is below 500 nM.

As for `COc1ccc(Nc2ncc(C)c(Nc3ccc4oc(=O)[nH]c4c3)n2)cc1C(F)F` [Compound I-271, 5-(2-(3-(difluoromethyl)-4-methoxyphenylamino)-5-methylpyrimidin-4-ylamino)benzo[d]oxazol-2(3H)-one], the IC50 was below 500 nM.
